Source: ChEMBL document CHEMBL3507680, “University of Dundee, Gates Library screen for HepG2 cell viability”
Where “and” joins values, the source holds several entries; their conditions need not be identical. Identical values can stand only once.

What was measured:
[1] = Human HepG2 cell viability dose-response assay; assay type: toxicity, cell-based
[2] = Human HepG2 cell viability assay in 384 well format; assay type: toxicity, cell-based; design: dose 125 nL, time 70.5 hour; cytotoxicity at 70.5 h: concentration not given beside the values; settings: HepG2 cells, read-out: Inhibition

Compound | BOTTOM [1] | HILLSLOPE [1] | TOP [1] | pXC50 [1] | cytotoxicity at 70.5 h [2]
CCN(CC)c1nc(Nc2cccc(C(C)O)c2)nc2ccccc12 (stereo not drawn) | -6.556 and -9.604 | 3.369 and 3.239 | 95.36 and 94.66 | 5.073 and 5.085 | 65%
CC(C)(C)c1cn2c(n1)C(CNCc1cnn3ccccc13)CCC2 (stereo not drawn) | -11.51 and -11.88 | 1.1 and 1.076 | 100 | 5.268 and 5.282 | 71.2%
CC(C)(C)c1cn2c(n1)C(CNCc1ccccn1)CCC2 (stereo not drawn) | -8.279 and -9.133 | 1.336 and 1.545 | 100 and 90.93 | 5.194 and 5.33 | 70.8%
COc1ccc(C2CCCN2c2nnc(C)s2)c(OC)c1 (stereo not drawn) | 0 | 0 | 0 | < 4.53 | 64.4%
Cc1cc(C(=O)NCC(O)c2c(Cl)cccc2Cl)nn1C (stereo not drawn) | 0 | 0 | 0 | < 4.53 | 71.4%
Cc1nc(CN2CCCC(N(C)Cc3cnn(C)c3)C2)no1 (stereo not drawn) | 0 | 0 | 0 | < 4.53 | 89.5%
O=C(Cn1cnc2ccccc2c1=O)Nc1cc(C2CC2)n[nH]1 | -7.289 and -9.306 | 2.407 and 2.226 | 101 and 100.4 | 6.137 and 6.176 | 107%
COCCn1c2c(ccc1=O)CC(NCc1cnn(C)c1)CC2 (stereo not drawn) | 0 | 0 | 0 | < 4.53 | 101%
CNc1cc(C)nc(NCc2cc(C)cc3c(C)c(C)[nH]c23)n1 | -6.522 and -8.24 | 2.624 and 2.705 | 104.6 and 104.5 | 5.463 and 5.453 | 67.2%
CCc1[nH]c2c(CNc3nc(C)cc(NC)n3)cc(C)cc2c1C | -3.977 and -5.003 | 3.393 and 3.303 | 104.5 and 105 | 5.219 and 5.191 | 99.9%
COCc1cc(N(C)Cc2c(C)nn(C)c2C)n2nccc2n1 | 0 | 0 | 0 | < 4.53 | 64.9%
COc1ccc(OCCN2CCC(N3CCNC3=O)CC2)cc1 |  | 1.006 and 1.131 | 99.89 and 100 | 4.882 and 4.993 | 80.5%
Cc1cnc(C(=O)N2CCCC(n3ccnc3C)C2)cn1 (stereo not drawn) | 0 | 0 | 0 | < 4.53 | 61.9%
COCCN1CCN(Cc2cccc(C(N)=O)c2)CC1C (stereo not drawn) | 0 | 0 | 0 | < 4.53 | 71.2%
CC(O)CN1CCC(CNCc2c[nH]nc2C(C)(C)C)CC1 (stereo not drawn) | 0 | 0 | 0 | < 4.53 | 70.3%
Cc1cc(NC(=O)CN2CCn3c(nnc3C(C)C)C2)no1 | 0 | 0 | 0 | < 4.53 | 67.5%
Cl.Clc1cccc(N[C@H]2CCCN[C@H]2Cc2ccccc2)c1 | 3.022 and 5.09 | 10.78 and 7.141 | 102.1 and 102.6 | 5.327 and 5.334 | 104%
CN1CCC(c2n[nH]c3ncccc23)C1.O=CO (stereo not drawn) |  | 2.128 and 2.318 | 100 | 4.946 and 4.92 | 81.6%
C/N=C1\c2cc3cc(OC)ccc3n2CCN1Cc1ccccc1.O=C(O)C(F)(F)F | -10.9 and -4.699 | 1.421 and 1.435 | 100 | 5.16 and 5.151 | 68.5%
